Results from ChEMBL document CHEMBL1201862, “PubChem BioAssay data set” (2004).
Calls of active or inactive are those of the source.

Legend:
Streptococcus [1] = assay: Luminescence Microorganism-Based Dose Response Follow up to Identify Compounds Cytotoxic to Streptococcus. [Related pubchem assays: 1677 (Project Summary), 1915, 1914, 1902 (Retest at Dose), 1900 (Counter Screen), 1662 (Primary HTS)]; assay type: functional, organism-based
Streptococcus [2] = assay: Group A Streptococcus viability loss, dose response, counter-screen for streptokinase expression inhibitor project, luminescence, BacTiterGlo (AID 1915); assay type: functional, organism-based;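 note: potency for reduction of bacterial viability or growth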
Streptokinase A = biological target: T1, Streptokinase A (Streptococcus pyogenes serotype M1, UniProt P10520); assay: S. pyogenes streptokinase expression inhibitors, potency, dose response, plasminogen activation absorbance, OD405 (AID 1914); assay type: functional, Streptococcus pyogenes M1 GAS;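 note: secreted streptokinase activity via plasminogen activation per viability signal from cell pellet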
T1 sequence (P10520 whole entry): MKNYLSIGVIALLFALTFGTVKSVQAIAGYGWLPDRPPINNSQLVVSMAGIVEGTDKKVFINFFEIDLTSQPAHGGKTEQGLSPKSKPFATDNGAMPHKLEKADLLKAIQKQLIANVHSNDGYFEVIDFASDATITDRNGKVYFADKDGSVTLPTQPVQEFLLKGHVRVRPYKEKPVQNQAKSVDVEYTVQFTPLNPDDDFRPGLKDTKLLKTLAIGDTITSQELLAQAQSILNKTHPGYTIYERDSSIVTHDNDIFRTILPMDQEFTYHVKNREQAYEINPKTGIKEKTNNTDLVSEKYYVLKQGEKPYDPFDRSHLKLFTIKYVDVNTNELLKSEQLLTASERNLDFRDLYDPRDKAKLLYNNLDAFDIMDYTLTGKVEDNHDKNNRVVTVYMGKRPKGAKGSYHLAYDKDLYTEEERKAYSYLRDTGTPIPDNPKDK

[3] = tested on: Streptococcus sp. 'group A'; assay: growth inhibition of control SK(-) GAS strain, dose response, counter-screen for streptokinase expression inhibitor project, luminescence, kanamycin, BacTiterGlo, confirmation (AID 1900); assay type: functional, organism-based
[4] = inhibitors of intracellular T. cruzi replication, confirmation, NIH3T3 host cells, beta-gal luminescence (AID 2044); assay type: functional, cell-based;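 note: intracellular parasites grown in NIH/3T3 mouse fibroblasts as host cells; luminescent beta-galactosidase reporter signal from transgenic T. cruzi replicating inside host cells; inhibitors lower the luminescence signal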
Salmon testes DNA = assay: DNA intercalators displacing acridine orange, dose response, artefact control for KSHV LANA DNA-binding inhibitor project, biochemical, fluorescence polarization, cherry-picked samples, set 2 (AID 504727); set-up: species or system Salmonidae
[5] = cytotoxicity toward NIH3T3 fibroblasts, dose response, counter-screen, cell-based, ATP luminescence, mouse fibroblasts (AID 2010); assay type: functional;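 note: cells exposed to compound for about 90 hours before reading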
[6] = biological target: T2, RNA-binding protein pos-1 (Caenorhabditis elegans, UniProt G5EF15); assay: inhibitors of POS-1/mex-3 RNA binding, dose response, biochemical, fluorescence polarization (AID 1964);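 note: purified POS-1 fused to maltose binding protein made in E. coli; potency of compounds blocking POS-1 binding to fluorescent RNA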
T2 sequence (G5EF15 whole entry): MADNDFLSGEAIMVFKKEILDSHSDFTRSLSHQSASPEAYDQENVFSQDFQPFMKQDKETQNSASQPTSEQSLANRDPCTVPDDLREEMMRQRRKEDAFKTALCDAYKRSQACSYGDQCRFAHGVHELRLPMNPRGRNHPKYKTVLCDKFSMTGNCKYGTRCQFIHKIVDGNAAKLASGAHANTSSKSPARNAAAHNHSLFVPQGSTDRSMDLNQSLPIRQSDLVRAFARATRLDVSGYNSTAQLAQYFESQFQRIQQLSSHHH

[7] = biological target: T3, Zinc finger protein mex-5 (Caenorhabditis elegans, UniProt Q9XUB2); assay: MEX-5/TCR-2 RNA interaction inhibitors, dose response, biochemical, C. elegans, fluorescence polarization (AID 1960)
T3 sequence (Q9XUB2 whole entry): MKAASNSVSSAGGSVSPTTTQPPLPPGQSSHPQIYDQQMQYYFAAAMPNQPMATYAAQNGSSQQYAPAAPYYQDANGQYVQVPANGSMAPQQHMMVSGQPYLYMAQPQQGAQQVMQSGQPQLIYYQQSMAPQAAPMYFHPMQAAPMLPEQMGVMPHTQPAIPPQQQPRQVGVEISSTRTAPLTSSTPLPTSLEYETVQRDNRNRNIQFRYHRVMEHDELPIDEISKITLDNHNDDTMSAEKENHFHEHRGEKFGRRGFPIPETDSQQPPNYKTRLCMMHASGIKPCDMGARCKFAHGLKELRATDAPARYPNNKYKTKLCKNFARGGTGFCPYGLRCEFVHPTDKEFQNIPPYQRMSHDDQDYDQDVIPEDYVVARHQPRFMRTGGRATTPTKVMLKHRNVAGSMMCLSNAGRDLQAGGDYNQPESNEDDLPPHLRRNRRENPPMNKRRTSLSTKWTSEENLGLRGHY

[8] = biological target: Melanin-concentrating hormone receptor 1 (Homo sapiens, UniProt Q99705); assay: Fluorescence-based counterscreen for antagonists of the G-protein coupled receptor 7 (GPR7): cell-based high throughput dose response assay to identify antagonists of the melanin-concentrating hormone receptor 1 (MCHR1).; assay type: functional
Sequence of Melanin-concentrating hormone receptor 1 (Q99705 whole entry): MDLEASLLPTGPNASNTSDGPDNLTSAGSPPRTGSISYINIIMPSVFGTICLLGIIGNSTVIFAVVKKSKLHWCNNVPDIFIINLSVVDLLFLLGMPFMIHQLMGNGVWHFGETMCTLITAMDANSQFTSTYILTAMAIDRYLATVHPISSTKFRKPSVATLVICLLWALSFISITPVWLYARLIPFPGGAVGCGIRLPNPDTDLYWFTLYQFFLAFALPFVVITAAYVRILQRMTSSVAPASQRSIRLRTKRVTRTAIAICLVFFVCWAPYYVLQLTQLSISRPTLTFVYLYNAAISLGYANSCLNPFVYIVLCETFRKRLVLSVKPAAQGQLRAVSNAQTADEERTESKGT

[9] = biological target: Neurotensin receptor type 1 (Homo sapiens, UniProt P30989); assay type: functional;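 note: Image-based confirmatory dose-response assay measuring agonist activity at NTR1; NTR1-expressing U2OS osteosarcoma cells imaged for beta-arrestin GFP spot formation; agonist potency where compounds increase beta-arrestin recruitment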
Sequence of Neurotensin receptor type 1 (P30989 whole entry): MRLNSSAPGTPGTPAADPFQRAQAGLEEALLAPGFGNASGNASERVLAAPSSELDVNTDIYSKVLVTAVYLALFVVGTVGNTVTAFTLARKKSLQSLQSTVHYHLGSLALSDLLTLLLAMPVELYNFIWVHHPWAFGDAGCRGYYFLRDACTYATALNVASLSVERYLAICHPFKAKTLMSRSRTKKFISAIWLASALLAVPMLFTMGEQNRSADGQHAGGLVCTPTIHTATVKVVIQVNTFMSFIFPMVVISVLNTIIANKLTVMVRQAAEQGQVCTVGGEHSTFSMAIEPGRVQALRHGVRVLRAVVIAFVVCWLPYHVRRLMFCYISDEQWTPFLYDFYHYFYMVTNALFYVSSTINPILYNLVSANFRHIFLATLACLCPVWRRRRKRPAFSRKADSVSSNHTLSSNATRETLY

[10] = biological target: Dual specificity protein phosphatase 3 (Homo sapiens, UniProt P51452); assay: VHR1 inhibitor Ki determination, SAR follow-up, biochemical, colorimetric (AID 2004)
Sequence of Dual specificity protein phosphatase 3 (P51452 whole entry): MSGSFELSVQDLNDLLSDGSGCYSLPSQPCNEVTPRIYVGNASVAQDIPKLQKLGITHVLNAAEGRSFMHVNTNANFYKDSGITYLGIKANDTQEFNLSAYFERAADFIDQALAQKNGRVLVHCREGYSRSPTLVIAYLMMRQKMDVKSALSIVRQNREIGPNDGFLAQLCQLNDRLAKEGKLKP

[11] = biological target: Acyl-homoserine lactone acylase PvdQ (Pseudomonas aeruginosa (strain LESB58), UniProt Q9I194); assay: P. aeruginosa PvdQ acylase inhibitors, dose response, biochemical, fluorescence, plate reader and imaging, cherry-picks (AID 493231)
Sequence of Acyl-homoserine lactone acylase PvdQ (Q9I194 24-193 limits assumed): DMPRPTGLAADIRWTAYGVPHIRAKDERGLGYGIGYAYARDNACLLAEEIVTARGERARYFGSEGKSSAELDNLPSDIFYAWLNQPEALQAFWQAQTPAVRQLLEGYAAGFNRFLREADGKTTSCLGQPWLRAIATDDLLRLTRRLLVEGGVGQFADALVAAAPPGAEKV
Sequence of Acyl-homoserine lactone acylase PvdQ (Q9I194 217-762 limits assumed): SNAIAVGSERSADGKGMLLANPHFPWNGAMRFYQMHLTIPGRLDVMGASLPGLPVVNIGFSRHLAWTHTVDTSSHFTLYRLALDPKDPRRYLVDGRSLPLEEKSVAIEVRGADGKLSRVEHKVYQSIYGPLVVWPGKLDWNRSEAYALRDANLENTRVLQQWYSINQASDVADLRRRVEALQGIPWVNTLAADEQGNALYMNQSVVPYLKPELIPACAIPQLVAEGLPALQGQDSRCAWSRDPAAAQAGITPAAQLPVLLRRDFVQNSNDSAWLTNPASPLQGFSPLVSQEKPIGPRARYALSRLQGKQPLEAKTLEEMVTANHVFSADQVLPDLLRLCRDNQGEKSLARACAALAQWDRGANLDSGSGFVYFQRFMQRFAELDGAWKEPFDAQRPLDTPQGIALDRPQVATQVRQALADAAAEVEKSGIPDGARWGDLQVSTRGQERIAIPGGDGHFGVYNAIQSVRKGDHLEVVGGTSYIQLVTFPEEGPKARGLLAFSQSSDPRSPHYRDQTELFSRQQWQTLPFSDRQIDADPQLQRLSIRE

Vero [12] = assay: cytotoxicity of synthesized analogs in Vero cells, SAR follow-up, cytotoxicity control for West Nile virus antiviral project, cell-based, set II (AID 2402); assay type: functional; conditions: Chlorocebus sabaeus
Vero [13] = assay: cytotoxicity of synthesized analogs in Vero 76, SAR follow-up, cytotoxicity control for West Nile virus antiviral project, Vero 76 cells (AID 2414); assay type: functional; conditions: Chlorocebus sabaeus
[14] = A Cell Based Assay for the Identification of Probe candidate Compounds with Anti- Venezuelan Equine Encephalitis virus. [Related pubchem assays: 2409, 2419, 1621, 2238, 2405, 2024, 2065, 2402, 2414, 1635, 1650, 2244 ]; assay type: functional
Vero [15] = assay: Vero E6 cell cytotoxicity, SAR follow-up, cytotoxicity control for West Nile virus antiviral project, synthesized analogs (AID 2244); assay type: functional; conditions: Chlorocebus sabaeus
[16] = biological target: T4, Sentrin-specific protease 1 (Homo sapiens, UniProt Q9P0U3); assay: Dose response confirmation of small molecule inhibitors of the catalytic domain of the SUMO protease, SENP1 in a FRET assay.; assay type: functional; conditions: read-out: IC50_Mean
T4 sequence (Q9P0U3 whole entry): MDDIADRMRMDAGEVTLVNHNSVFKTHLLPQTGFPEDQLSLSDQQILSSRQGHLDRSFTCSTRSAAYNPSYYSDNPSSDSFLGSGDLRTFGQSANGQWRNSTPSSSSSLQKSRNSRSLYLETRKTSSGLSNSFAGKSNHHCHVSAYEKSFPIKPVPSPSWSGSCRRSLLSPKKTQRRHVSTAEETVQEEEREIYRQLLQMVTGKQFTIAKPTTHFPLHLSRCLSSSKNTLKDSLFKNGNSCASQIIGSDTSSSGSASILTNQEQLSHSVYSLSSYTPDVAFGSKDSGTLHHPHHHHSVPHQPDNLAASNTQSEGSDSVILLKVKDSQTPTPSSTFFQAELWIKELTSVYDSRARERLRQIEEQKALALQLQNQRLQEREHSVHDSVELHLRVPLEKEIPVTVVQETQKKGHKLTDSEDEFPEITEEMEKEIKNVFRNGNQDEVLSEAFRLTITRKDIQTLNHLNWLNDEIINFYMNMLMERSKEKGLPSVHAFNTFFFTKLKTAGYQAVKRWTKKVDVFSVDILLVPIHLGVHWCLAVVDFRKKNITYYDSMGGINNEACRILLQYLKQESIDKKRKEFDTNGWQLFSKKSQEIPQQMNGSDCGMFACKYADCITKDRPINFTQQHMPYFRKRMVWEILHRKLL

[17] = cytotoxicity in HEK-293T cells, dose response, cytotoxicity control for BCR NF-kB inhibitor project, luminescence, B-cell screen hits (AID 489021); assay type: functional, cell-based;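 note: HEK-293T cells carrying an NF-kB luciferase reporter; cells exposed to compound for about 14 hours before viability readout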
[18] = biological target: T4, Sentrin-specific protease 1; assay: potency of human SENP1 inhibitors, dose response, biochemical, kinetic FRET (AID 651697); assay type: functional; conditions: read-out: IC50_Mean
[19] = biological target: T5, Rac GTPase-activating protein 1 (Homo sapiens, UniProt Q9H0H5); assay: MgcRacGAP GTPase-activating activity inhibitors, confirmation, biochemical, ADP Hunter fluorescence, primary and confirmatory (AID 624330); assay type: functional
T5 sequence (Q9H0H5 whole entry): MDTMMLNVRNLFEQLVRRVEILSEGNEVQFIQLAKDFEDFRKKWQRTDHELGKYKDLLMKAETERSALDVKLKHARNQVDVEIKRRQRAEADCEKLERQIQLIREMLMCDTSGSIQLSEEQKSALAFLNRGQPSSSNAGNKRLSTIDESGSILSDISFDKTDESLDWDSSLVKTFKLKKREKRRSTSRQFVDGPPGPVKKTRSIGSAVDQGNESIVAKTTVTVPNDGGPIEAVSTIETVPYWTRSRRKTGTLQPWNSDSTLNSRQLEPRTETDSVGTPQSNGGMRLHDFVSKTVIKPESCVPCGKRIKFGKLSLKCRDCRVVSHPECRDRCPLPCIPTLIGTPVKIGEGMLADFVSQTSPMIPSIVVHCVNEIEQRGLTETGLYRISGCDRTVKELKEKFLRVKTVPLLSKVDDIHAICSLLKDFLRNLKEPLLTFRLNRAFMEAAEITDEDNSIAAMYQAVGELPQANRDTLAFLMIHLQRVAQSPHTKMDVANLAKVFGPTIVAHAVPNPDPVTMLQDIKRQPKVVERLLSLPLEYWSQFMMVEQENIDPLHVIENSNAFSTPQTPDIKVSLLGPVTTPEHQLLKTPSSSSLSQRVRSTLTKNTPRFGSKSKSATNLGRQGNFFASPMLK

[20] = biological target: T6, DNA repair protein RAD52 homolog (Homo sapiens, UniProt P43351); assay type: functional, biochemical
T6 sequence (P43351 whole entry): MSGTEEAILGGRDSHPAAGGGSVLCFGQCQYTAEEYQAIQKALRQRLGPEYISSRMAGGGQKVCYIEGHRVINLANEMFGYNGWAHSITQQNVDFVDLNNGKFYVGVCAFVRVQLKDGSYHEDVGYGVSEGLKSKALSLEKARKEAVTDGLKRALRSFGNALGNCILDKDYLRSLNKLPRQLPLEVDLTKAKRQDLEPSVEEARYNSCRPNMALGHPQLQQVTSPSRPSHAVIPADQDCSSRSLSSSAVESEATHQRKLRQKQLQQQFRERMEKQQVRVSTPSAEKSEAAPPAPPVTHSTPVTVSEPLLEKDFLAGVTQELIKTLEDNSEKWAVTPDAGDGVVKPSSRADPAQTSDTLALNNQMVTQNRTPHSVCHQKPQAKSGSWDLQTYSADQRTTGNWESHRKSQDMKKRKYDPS

[21] = HeLa cell cytotoxicity, dose response, cytotoxicity control for MgcRacGAP inhibitor project (AID 624300); assay type: functional
[22] = inhibition of K1F phage lysis, E. coli UTI89, bacterial capsule biogenesis inhibitors, alamar blue (AID 488966); assay type: functional
Cytochrome P450 2C9 = Cytochrome P450 2C9 (Homo sapiens, UniProt P11712); conditions: Potency
Sequence of Cytochrome P450 2C9 (P11712 whole entry): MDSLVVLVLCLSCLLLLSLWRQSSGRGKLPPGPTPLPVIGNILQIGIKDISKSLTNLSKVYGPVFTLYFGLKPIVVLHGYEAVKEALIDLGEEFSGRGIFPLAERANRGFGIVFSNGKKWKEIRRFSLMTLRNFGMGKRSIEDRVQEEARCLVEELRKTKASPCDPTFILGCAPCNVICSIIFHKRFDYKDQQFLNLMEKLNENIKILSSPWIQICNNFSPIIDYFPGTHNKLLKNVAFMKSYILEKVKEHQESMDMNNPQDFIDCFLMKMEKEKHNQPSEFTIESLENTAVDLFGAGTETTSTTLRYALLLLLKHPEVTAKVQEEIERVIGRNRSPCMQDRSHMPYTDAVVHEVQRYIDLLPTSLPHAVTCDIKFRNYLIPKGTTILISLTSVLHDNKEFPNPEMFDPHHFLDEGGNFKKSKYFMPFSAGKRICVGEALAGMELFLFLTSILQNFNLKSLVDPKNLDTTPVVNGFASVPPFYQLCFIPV

Cytochrome P450 3A4 = Cytochrome P450 3A4 (Homo sapiens, UniProt P08684); conditions: Potency;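 note: confirmatory qHTS run detecting inhibitors and substrates of CYP3A4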
Sequence of Cytochrome P450 3A4 (P08684 whole entry): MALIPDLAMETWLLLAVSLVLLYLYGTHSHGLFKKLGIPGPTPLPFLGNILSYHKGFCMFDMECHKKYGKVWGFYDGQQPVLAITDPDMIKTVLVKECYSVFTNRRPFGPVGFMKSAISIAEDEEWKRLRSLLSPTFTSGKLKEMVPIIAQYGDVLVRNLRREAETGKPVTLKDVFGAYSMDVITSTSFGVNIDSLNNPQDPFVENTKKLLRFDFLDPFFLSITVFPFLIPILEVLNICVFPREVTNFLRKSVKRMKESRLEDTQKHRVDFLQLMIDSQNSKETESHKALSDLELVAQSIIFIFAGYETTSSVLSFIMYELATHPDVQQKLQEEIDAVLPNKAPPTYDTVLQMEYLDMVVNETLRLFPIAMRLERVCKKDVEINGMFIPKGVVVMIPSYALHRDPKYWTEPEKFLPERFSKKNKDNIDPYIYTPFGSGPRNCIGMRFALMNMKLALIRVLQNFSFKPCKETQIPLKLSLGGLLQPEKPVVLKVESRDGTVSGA

For `COc1ccc(-c2csc3ncnc(N4CCN(c5ccccc5Cl)CC4)c23)cc1`, the EC50 (Streptococcus [1]) was > 500 µM (not active), the EC50 (Streptococcus [2]) was > 150 µM (not active) and the EC50 (Streptokinase A) was 3.7 µM (active). The EC50 [3] was 82.6 µM (active).
With `COc1cccc(OCCCn2cc(/C=C3/C(=N)N4C=C(C)SC4=NC3=O)c3ccccc32)c1` the EC50 [4] was 1.34 µM (active), the AC50 (Salmon testes DNA) was 65.9 µM (active) and the EC50 [5] was > 60 µM (not active). The EC50 [6] was 108 µM (active) and the EC50 [7] was 109 µM (active).
In the case of `Cc1ccc(C2C3=C(NCCN=C3c3ccccc3)C(=O)N2c2ccccc2)cc1` (stereo unspecified), the IC50 [8] is reported as > 14.6 µM (not active).
With `O=C(COC(=O)/C=C/C(=O)OCC(=O)NC12CC3CC(CC(C3)C1)C2)NC12CC3CC(CC(C3)C1)C2` the EC50 [9] was > 40 µM (inactive).
In the case of `CC(C)C1SC(N/N=C/c2ccc(O)cc2)=NC1=O` (stereo unspecified), the Ki [10] is reported as 36.1 µM (inactive).
In the case of `O=C(CSCc1ccco1)N1CCc2ccccc21`, the AC50 [11] is reported as 1.9 µM (active).
With `COc1cccc(NC(=O)CSc2nc3ccccc3c(=O)n2-c2ccc(F)cc2)c1` the CC50 (Vero [12]) was > 100 µM (active), the CC50 (Vero [13]) was > 66.6 µM (active) and the IC50 [14] was 64.2 µM (active). The CC50 (Vero [15]) was > 40 µM (active).
With `CCSc1ncc(Cl)c(C(=O)Nc2sc3c(c2C(=O)NCc2cccnc2)CCCC3)n1` the IC50 [16] was 5.97 µM (active), the IC50 [17] was > 80 µM (inactive) and the IC50 [18] was 19.1 µM (active).
For `O=C1c2cccc(NCCNCCO)c2C(=O)c2cccc(NCCNCCO)c21`, the IC50 [19] was 41.3 µM (active), the AC50 [20] was < 0.15 µM (active) and the CC50 [21] was 23.1 µM (active). For the same compound, the IC50 [22] was > 300 µM (active).
In the case of `O=c1c(O)c(-c2ccc(O)cc2)oc2ccc(O)cc12`, the AC50 (Cytochrome P450 2C9) is reported as 10 µM (inconclusive) and the AC50 (Cytochrome P450 3A4) is reported as 12.6 µM (inconclusive).
